Results published in publication PMC9340768 (Journal of Medicinal Chemistry, 2022).
Starred links: 1 amine or outer side, 2 acyl side, 3 side chain; linkers in the order of their positions; H or OH if unused. Positions of bridges follow the written chain, without caps; N, C: chain ends. Non-standard residues stand in square brackets, D forms with d. Residues, ends and D or L forms follow the SMILES beside them. Chains are numbered I, II in the order given. TATA = O=C(CC[*:1])N1CN(C(=O)CC[*:2])CN(C(=O)CC[*:3])C1; X1 = O=C(CCc1cn(CCOCCOCCOCCOCCOCCC(=O)[*:2])nn1)[*:1]; 1Nal = N[C@@H](Cc1cccc2ccccc12)C(=O)O; Hyp = O=C(O)[C@@H]1C[C@@H](O)CN1; hArg = N=C(N)NCCCC[C@H](N)C(=O)O; tBuAla = CC(C)(C)C[C@H](N)C(=O)O; Nle = CCCC[C@H](N)C(=O)O

Experiments:
CD137 = CD137 (Homo sapiens, UniProt Q07011+Q96NY8); assay: HT1376/CD137 reporter coculture assay; type: cell-based
CD137, sequence (Q07011 24-255): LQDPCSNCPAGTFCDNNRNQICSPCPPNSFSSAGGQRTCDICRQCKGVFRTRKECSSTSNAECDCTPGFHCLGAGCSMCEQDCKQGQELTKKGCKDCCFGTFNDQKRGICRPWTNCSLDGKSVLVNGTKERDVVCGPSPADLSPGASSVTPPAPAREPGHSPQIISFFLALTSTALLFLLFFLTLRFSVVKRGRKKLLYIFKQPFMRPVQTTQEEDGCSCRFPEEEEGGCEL
CD137, sequence (Q96NY8 32-510): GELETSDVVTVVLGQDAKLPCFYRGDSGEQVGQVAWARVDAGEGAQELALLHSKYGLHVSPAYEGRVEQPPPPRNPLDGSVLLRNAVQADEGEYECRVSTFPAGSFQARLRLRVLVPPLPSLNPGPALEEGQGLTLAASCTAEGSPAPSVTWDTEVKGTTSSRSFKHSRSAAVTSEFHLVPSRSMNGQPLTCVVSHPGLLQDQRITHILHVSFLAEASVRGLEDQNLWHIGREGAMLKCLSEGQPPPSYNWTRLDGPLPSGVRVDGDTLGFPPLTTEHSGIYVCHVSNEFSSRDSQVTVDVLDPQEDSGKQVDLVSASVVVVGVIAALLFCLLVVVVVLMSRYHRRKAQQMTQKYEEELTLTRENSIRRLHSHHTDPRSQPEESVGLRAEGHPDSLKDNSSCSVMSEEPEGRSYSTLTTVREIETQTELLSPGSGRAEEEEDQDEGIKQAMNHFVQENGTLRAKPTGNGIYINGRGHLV

[1] = Pharmacokinetics in Sprague-Dawley rats; settings: rat, in vivo, iv, 2 mg/kg

CCCC[C@@H]1NC(=O)[C@H](Cc2ccc(O)cc2)NC(=O)[C@@H]2CCCN2C(=O)[C@H](CC(=O)O)NC(=O)[C@H](C)NC(=O)[C@H](Cc2ccccc2)NC(=O)[C@@H]2CSCCC(=O)N3CN(CN(C3)C(=O)CCSC[C@@H](C(=O)N[C@@H](C)C(N)=O)NC1=O)C(=O)CCSC[C@H](NC(C)=O)C(=O)N[C@@H](CC(C)(C)C)C(=O)N1CCC[C@H]1C(=O)N[C@@H](CCCCNC(=O)CCc1cn(CCOCCOCCOCCOCCOCCC(=O)N[C@H]3CSCCC(=O)N4CN5CN(C4)C(=O)CCSC[C@H](NC(=O)[C@@H](CC(=O)O)NC(=O)[C@H](Cc4cccc6ccccc46)NC(=O)[C@@H]4CCCN4C3=O)C(=O)N[C@@H](CCSC)C(=O)N[C@@H](CCCCNC(=N)N)C(=O)N[C@@H](CC(=O)O)C(=O)N[C@@H](Cc3c[nH]c4ccccc34)C(=O)N[C@@H](CO)C(=O)N[C@@H]([C@@H](C)O)C(=O)N3CCC[C@H]3C(=O)N3C[C@H](O)C[C@H]3C(=O)N[C@@H](Cc3c[nH]c4ccccc34)C(=O)N[C@H](C(N)=O)CSCCC5=O)nn1)C(=O)N[C@H](C)C(=O)N1CCC[C@H]1C(=O)N[C@@H](Cc1ccc(O)cc1)C(=O)N2 [BCY10571]
EC50 relative to similar compounds (CD137; vs dLys4 (BCY10572) or C-terminal Dap (BCY10573) attachment): two- to threefold weaker

CCCC[C@@H]1NC(=O)[C@H](Cc2ccc(O)cc2)NC(=O)[C@@H]2CCCN2C(=O)[C@H](CC(=O)O)NC(=O)[C@H](C)NC(=O)[C@H](Cc2ccccc2)NC(=O)[C@@H]2CSCCC(=O)N3CN(CN(C3)C(=O)CCSC[C@@H](C(=O)N[C@@H](C)C(N)=O)NC1=O)C(=O)CCSC[C@H](NC(C)=O)C(=O)N[C@@H](CC(C)(C)C)C(=O)N1CCC[C@H]1C(=O)N[C@@H](CCC(=O)O)C(=O)N[C@H](CCCCNC(=O)CCc1cn(CCOCCOCCOCCOCCOCCOCCOCCOCCOCCOCCNC(=O)CCOCCN(CCOCCC(=O)NCCOCCOCCOCCOCCOCCOCCOCCOCCOCCOCCn3cc(CCC(=O)NCCCC[C@H]4NC(=O)[C@H](CCC(=O)O)NC(=O)[C@@H]5CCCN5C(=O)[C@H](CC(C)(C)C)NC(=O)[C@@H](NC(C)=O)CSCCC(=O)N5CN6CN(C5)C(=O)CCSC[C@H](NC(=O)[C@H](Cc5ccc(O)cc5)NC(=O)[C@@H]5CCCN5C4=O)C(=O)N[C@@H](Cc4ccccc4)C(=O)N[C@@H](C)C(=O)N[C@@H](CC(=O)O)C(=O)N4CCC[C@H]4C(=O)N[C@@H](Cc4ccc(O)cc4)C(=O)N[C@@H](CCCC)C(=O)N[C@H](C(=O)N[C@@H](C)C(N)=O)CSCCC6=O)nn3)CCOCCC(=O)NCCOCCOCCOCCOCCOCCOCCOCCOCCOCCOCCn3cc(CCC(=O)N[C@H]4CSCCC(=O)N5CN6CN(C5)C(=O)CCSC[C@H](NC(=O)[C@@H](CC(=O)O)NC(=O)[C@H](Cc5cccc7ccccc57)NC(=O)[C@@H]5CCCN5C4=O)C(=O)N[C@@H](CCSC)C(=O)N[C@@H](CCCCNC(=N)N)C(=O)N[C@@H](CC(=O)O)C(=O)N[C@@H](Cc4c[nH]c5ccccc45)C(=O)N[C@@H](CO)C(=O)N[C@@H]([C@@H](C)O)C(=O)N4CCC[C@H]4C(=O)N4C[C@H](O)C[C@H]4C(=O)N[C@@H](Cc4c[nH]c5ccccc45)C(=O)N[C@H](C(N)=O)CSCCC6=O)nn3)nn1)C(=O)N1CCC[C@H]1C(=O)N[C@@H](Cc1ccc(O)cc1)C(=O)N2 [BCY11027]
half-life [1]: 35.4 min

CCCC[C@@H]1NC(=O)[C@H](Cc2ccc(O)cc2)NC(=O)[C@@H]2CCCN2C(=O)[C@H](CC(=O)O)NC(=O)[C@H](C)NC(=O)[C@H](Cc2ccccc2)NC(=O)[C@@H]2CSCCC(=O)N3CN(CN(C3)C(=O)CCSC[C@@H](C(=O)N[C@@H](CNC(=O)CCc3cn(CC(=O)N[C@H]4CSCCC(=O)N5CN6CN(C5)C(=O)CCSC[C@H](NC(=O)[C@@H](CC(=O)O)NC(=O)[C@H](Cc5cccc7ccccc57)NC(=O)[C@@H]5CCCN5C4=O)C(=O)N[C@@H](CCSC)C(=O)N[C@@H](CCCCNC(=N)N)C(=O)N[C@@H](CC(=O)O)C(=O)N[C@@H](Cc4c[nH]c5ccccc45)C(=O)N[C@@H](CO)C(=O)N[C@@H]([C@@H](C)O)C(=O)N4CCC[C@H]4C(=O)N4C[C@H](O)C[C@H]4C(=O)N[C@@H](Cc4c[nH]c5ccccc45)C(=O)N[C@H](C(N)=O)CSCCC6=O)nn3)C(N)=O)NC1=O)C(=O)CCSC[C@H](NC(C)=O)C(=O)N[C@@H](CC(C)(C)C)C(=O)N1CCC[C@H]1C(=O)N[C@@H](CCC(=O)O)C(=O)N[C@H](C)C(=O)N1CCC[C@H]1C(=O)N[C@@H](Cc1ccc(O)cc1)C(=O)N2 [BCY11375]
improvement of EC50 (CD137; CD137 affinity improved from BCY9399 to BCY11375): 3.6 fold

CCCC[C@@H]1NC(=O)[C@H](Cc2ccc(O)cc2)NC(=O)[C@@H]2CCCN2C(=O)[C@H](CC(=O)O)NC(=O)[C@H](C)NC(=O)[C@H](Cc2ccccc2)NC(=O)[C@@H]2CSCCC(=O)N3CN(CN(C3)C(=O)CCSC[C@H](NC(C)=O)C(=O)N[C@@H](CC(C)(C)C)C(=O)N[C@@H](CCC(=O)O)C(=O)N[C@@H](CCC(=O)O)C(=O)N[C@H](CCCCNC(=O)CCc3cn(CCOCCOCCOCCOCCOCCC(=O)N[C@H]4CSCCC(=O)N5CN6CN(C5)C(=O)CCSC[C@H](NC(=O)[C@@H](CC(=O)O)NC(=O)[C@H](Cc5cccc7ccccc57)NC(=O)[C@@H]5CCCN5C4=O)C(=O)N[C@@H](CCSC)C(=O)N[C@@H](CCCCNC(=N)N)C(=O)N[C@@H](CC(=O)O)C(=O)N[C@@H](Cc4c[nH]c5ccccc45)C(=O)N[C@@H](CO)C(=O)N[C@@H]([C@@H](C)O)C(=O)N4CCC[C@H]4C(=O)N4C[C@H](O)C[C@H]4C(=O)N[C@@H](Cc4c[nH]c5ccccc45)C(=O)N[C@H](C(N)=O)CSCCC6=O)nn3)C(=O)N3CCC[C@H]3C(=O)N[C@@H](Cc3ccc(O)cc3)C(=O)N2)C(=O)CCSC[C@@H](C(N)=O)NC1=O [BCY12377]
clearance ([1]; CL (mL/min/kg), SD rats, 2 mg/kg IV bolus): 7.8 mL/min/kg

CCCC[C@@H]1NC(=O)[C@H](Cc2ccc(O)cc2)NC(=O)[C@@H]2CCCN2C(=O)[C@H](CC(=O)O)NC(=O)[C@H](C)NC(=O)[C@H](Cc2ccccc2)NC(=O)[C@@H]2CSCCC(=O)N3CN(CN(C3)C(=O)CCSC[C@@H](C(=O)N[C@@H](C)C(N)=O)NC1=O)C(=O)CCSC[C@H](NC(C)=O)C(=O)N[C@@H](CC(C)(C)C)C(=O)N1CCC[C@H]1C(=O)N[C@@H](CCC(=O)O)C(=O)N[C@H](CCCCNC(=O)CCc1cn(CCOCCOCCOCCOCCOCCC(=O)NCCCC[C@H]3NC(=O)[C@H](Cc4cccc5ccccc45)NC(=O)[C@@H]4CCCN4C(=O)[C@@H](NC(C)=O)CSCCC(=O)N4CN5CN(C4)C(=O)CCSC[C@H](NC3=O)C(=O)N[C@@H](CCSC)C(=O)N[C@@H](CCCCNC(=N)N)C(=O)N[C@@H](Cc3c[nH]cn3)C(=O)N[C@@H](Cc3c[nH]c4ccccc34)C(=O)N[C@@H](CO)C(=O)N[C@@H]([C@@H](C)O)C(=O)N3CCC[C@H]3C(=O)N3C[C@H](O)C[C@H]3C(=O)N[C@@H](Cc3c[nH]c4ccccc34)C(=O)N[C@H](C(N)=O)CSCCC5=O)nn1)C(=O)N1CCC[C@H]1C(=O)N[C@@H](Cc1ccc(O)cc1)C(=O)N2 [BCY12579] (I: Ac-C[tBuAla]PE[dK]PYCFADPY[Nle]CA-NH2 / II: Ac-CP[1Nal][dK]CM[hArg]HWSTP[Hyp]WC-NH2; linker I:1-I:8-I:15, II:1-II:5-II:15 via TATA; linker I:5-II:4 via X1)
improvement of EC50 (CD137; Nectin-4 affinity improved from BCY11858 to BCY12579): 12 fold

CCCC[C@@H]1NC(=O)[C@H](Cc2ccc(O)cc2)NC(=O)[C@@H]2CCCN2C(=O)[C@H](CC(=O)O)NC(=O)[C@H](C)NC(=O)[C@H](Cc2ccccc2)NC(=O)[C@@H]2CSCCC(=O)N3CN(CN(C3)C(=O)CCSC[C@@H](C(=O)N[C@@H](C)C(N)=O)NC1=O)C(=O)CCSC[C@H](NC(C)=O)C(=O)N[C@@H](CC(C)(C)C)C(=O)N1CCC[C@H]1C(=O)N[C@@H](CCC(=O)O)C(=O)N[C@H](CCCCNC(=O)CCc1cn(CCOCCOCCOCCN(CCOCCOCCOCCn3cc(CCC(=O)NCCCC[C@H]4NC(=O)[C@H](CCC(=O)O)NC(=O)[C@@H]5CCCN5C(=O)[C@H](CC(C)(C)C)NC(=O)[C@@H](NC(C)=O)CSCCC(=O)N5CN6CN(C5)C(=O)CCSC[C@H](NC(=O)[C@H](Cc5ccc(O)cc5)NC(=O)[C@@H]5CCCN5C4=O)C(=O)N[C@@H](Cc4ccccc4)C(=O)N[C@@H](C)C(=O)N[C@@H](CC(=O)O)C(=O)N4CCC[C@H]4C(=O)N[C@@H](Cc4ccc(O)cc4)C(=O)N[C@@H](CCCC)C(=O)N[C@H](C(=O)N[C@@H](C)C(N)=O)CSCCC6=O)nn3)CCOCCOCCOCC(=O)NCCCNC(=O)Cn3cc(CCC(=O)NCCCNC(=O)COCCOCCOCCN(CCOCCOCCOCCn4cc(CCC(=O)NCCC(=O)N[C@H]5CSCCC(=O)N6CN7CN(C6)C(=O)CCSC[C@H](NC(=O)[C@@H](CC(=O)O)NC(=O)[C@H](Cc6cccc8ccccc68)NC(=O)[C@@H]6CCCN6C5=O)C(=O)N[C@@H](CCSC)C(=O)N[C@@H](CCCCNC(=N)N)C(=O)N[C@@H](CC(=O)O)C(=O)N[C@@H](Cc5c[nH]c6ccccc56)C(=O)N[C@@H](CO)C(=O)N[C@@H]([C@@H](C)O)C(=O)N5CCC[C@H]5C(=O)N5C[C@H](O)C[C@H]5C(=O)N[C@@H](Cc5c[nH]c6ccccc56)C(=O)N[C@H](C(N)=O)CSCCC7=O)nn4)CCOCCOCCOCCn4cc(CCC(=O)NCCC(=O)N[C@H]5CSCCC(=O)N6CN7CN(C6)C(=O)CCSC[C@H](NC(=O)[C@@H](CC(=O)O)NC(=O)[C@H](Cc6cccc8ccccc68)NC(=O)[C@@H]6CCCN6C5=O)C(=O)N[C@@H](CCSC)C(=O)N[C@@H](CCCCNC(=N)N)C(=O)N[C@@H](CC(=O)O)C(=O)N[C@@H](Cc5c[nH]c6ccccc56)C(=O)N[C@@H](CO)C(=O)N[C@@H]([C@@H](C)O)C(=O)N5CCC[C@H]5C(=O)N5C[C@H](O)C[C@H]5C(=O)N[C@@H](Cc5c[nH]c6ccccc56)C(=O)N[C@H](C(N)=O)CSCCC7=O)nn4)nn3)nn1)C(=O)N1CCC[C@H]1C(=O)N[C@@H](Cc1ccc(O)cc1)C(=O)N2 [BCY12970]
fold more potent than the 1:2 format (CD137; 2:2 molecule vs 1:2 format): 2.9 fold
